The results in this text go back to US20230087118A1, “IMIDAZO[1,2-a][sequence] DERIVATIVES AND THEIR USE IN THE TREATMENT OF DISEASE” (priority 2019, published 2023).

Where a name gives a salt, the structure may show the parent alone.

The first test concerns the target T1, IRAK4 (Homo sapiens, UniProt Q9NWZ3).
T1 sequence (Q9NWZ3 1-460): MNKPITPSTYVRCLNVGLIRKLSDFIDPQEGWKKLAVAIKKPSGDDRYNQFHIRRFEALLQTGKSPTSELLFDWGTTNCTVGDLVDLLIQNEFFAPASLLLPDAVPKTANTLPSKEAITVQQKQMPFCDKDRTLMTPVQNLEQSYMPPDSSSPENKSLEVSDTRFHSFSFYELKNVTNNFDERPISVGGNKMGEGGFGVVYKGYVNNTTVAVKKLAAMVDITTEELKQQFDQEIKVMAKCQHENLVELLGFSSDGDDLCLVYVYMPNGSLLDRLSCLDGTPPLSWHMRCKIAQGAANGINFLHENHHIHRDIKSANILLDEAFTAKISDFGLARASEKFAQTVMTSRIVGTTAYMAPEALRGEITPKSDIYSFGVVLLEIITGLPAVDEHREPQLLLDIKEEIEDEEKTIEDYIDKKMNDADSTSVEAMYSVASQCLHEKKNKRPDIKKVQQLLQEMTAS
The test can be described thus: biochemical.
Conditions: not given
With `Cc1cnc2c(NC(=O)c3cn4cc(C56COC(CF)(C5)C6)nc4c(F)c3OC(C)C)cnn2c1` [Example 270, 8-Fluoro-2-(1-(fluoromethyl)-2-oxabicyclo[2.1.1]hexan-4-yl)-7-isopropoxy-N-(6-methylpyrazolo[1,5-a]pyrimidin-3-yl)imidazo[1,2-a]pyridine-6-carboxamide], the IC50 – broadly, the concentration that gives 50% inhibition – is 0.0023 µM. In the case of `COc1ncccc1NC(=O)c1cn2cc([C@]34CC[C@](C)(C3)OC4)nc2nc1OC(C)C` (single isomer, unassigned) [Example 579], the IC50 is 0.0004 µM. This IC50 lies about 5.8-fold lower than the previous one. As for `CC(C)Oc1cc2nc(C34COC(C)(C3)C4)cn2cc1C(=O)Nc1ccn(CC#N)n1` [Example 313, N-(1-(cyanomethyl)-1H-pyrazol-3-yl)-7-isopropoxy-2-(1-methyl-2-oxabicyclo[2.1.1]hexan-4-yl)imidazo[1,2-a]pyridine-6-carboxamide], half-maximal inhibition (IC50) required 0.0036 µM. For the compound `COc1ncccc1NC(=O)c1cn2cc(C3CC3)nc2nc1OC(C)C` [Example 283, 2-Cyclopropyl-7-isopropoxy-N-(2-methoxypyridin-3-yl)imidazo[1,2-a]pyrimidine-6-carboxamide], the IC50 was found to be 0.0025 µM. Consider `COc1ncccc1NC(=O)c1cn2cc(C34COC(C)(C3)C4)nc2c(C)c1OC` [Example 291, 7-Methoxy-N-(2-methoxypyridin-3-yl)-8-methyl-2-(1-methyl-2-oxabicyclo[2.1.1]hexan-4-yl)imidazo[1,2-a]pyridine-6-carboxamide], for which the IC50 was 0.0125 µM. On the same count and under the same terms, then `CCOc1nc(C(=O)Nc2cccnc2OC(C)C)cn2cc(C34COC(C)(C3)C4)nc12` [Example 499, 8-Ethoxy-N-(2-isopropoxypyridin-3-yl)-2-(1-methyl-2-oxabicyclo[2.1.1]hexan-4-yl)imidazo[1,2-a]pyrazine-6-carboxamide], with 0.0017 µM; and `CC(C)Oc1nc2nc(C34COC(C)(C3)C4)cn2cc1C(=O)Nc1cccc(OC(F)(F)F)n1` [Example 412, 7-Isopropoxy-2-(1-methyl-2-oxabicyclo[2.1.1]hexan-4-yl)-N-(6-(trifluoromethoxy)pyridin-2-yl)imidazo[1,2-a]pyrimidine-6-carboxamide], with 0.0012 µM; and `CC1(C)CC(Oc2cc3nc(C45COC(C)(C4)C5)cn3cc2C(=O)Nc2cccn(C(F)F)c2=O)C1` [Example 445, N-(1-(difluoromethyl)-2-oxo-1,2-dihydropyridin-3-yl)-7-(3,3-dimethylcyclobutoxy)-2-(1-methyl-2-oxabicyclo[2.1.1]hexan-4-yl)imidazo[1,2-a]pyridine-6-carboxamide], with 0.0006 µM.

`CC(C)Oc1cc2nc(C34CCC(C)(CC3)OC4)cn2cc1C(=O)Nc1cnn2cccnc12` [Example 572, 7-Isopropoxy-2-(1-methyl-2-oxabicyclo[2.2.2]octan-4-yl)-N-(pyrazolo[1,5-a]pyrimidin-3-yl)imidazo[1,2-a]pyridine-6-carboxamide] displayed an IC50 of 0.0004 µM.

For the compound `CC(C)Oc1cc2nc(Cl)cn2cc1C(=O)Nc1cccc(C(F)F)n1` [Example 265, 2-Chloro-N-(6-(difluoromethyl)pyridin-2-yl)-7-isopropoxyimidazo[1,2-a]pyridine-6-carboxamide], it took 0.0067 µM to reach half-maximal inhibition (IC50). Compared with the last compound, the IC50 is about 17-fold higher. On the same count and under the same terms, the result for `CC(C)Oc1cc2nc(C3CC3)cn2cc1C(=O)Nc1cccc(C#N)n1` [Example 638, N-(6-cyanopyridin-2-yl)-2-cyclopropyl-7-isopropoxyimidazo[1,2-a]pyridine-6-carboxamide] reads 0.0045 µM. As for `CC(C)Oc1cc2nc(C34CC(C3)C4)cn2cc1C(=O)Nc1cccc(C(F)F)n1` [Example 215], the IC50 stood at 0.0013 µM. `Cc1cnc2c(NC(=O)c3cn4cc(C56CCC(C)(CC5)CO6)nc4nc3OC(C)C)cnn2c1` [Example 567, 7-Isopropoxy-2-(4-methyl-2-oxabicyclo[2.2.2]octan-1-yl)-N-(6-methylpyrazolo[1,5-a]pyrimidin-3-yl)imidazo[1,2-a]pyrimidine-6-carboxamide] had a half-maximal inhibitory concentration (IC50) of 0.0002 µM. Compared with the last compound, the IC50 is about 6.5-fold lower.

Consider `CC(C)Oc1cc2nc(C34CCC(C)(C3)OC4)cn2cc1C(=O)Nc1cnn2c1OCCC2` (stereo not drawn) [Example 250], for which inhibition was half-maximal at 0.0013 µM (IC50). The compound `CC12CCC(c3cn4cc(C(=O)Nc5ccn(CCF)n5)c(OC5CCC5)cc4n3)(CO1)C2` (stereo not drawn) [Example 537, 7-Cyclobutoxy-N-(1-(2-fluoroethyl)-1H-pyrazol-3-yl)-2-(1-methyl-2-oxabicyclo[2.2.1]heptan-4-yl)imidazo[1,2-a]pyridine-6-carboxamide] had an IC50 of 0.0063 µM.

On to `CC(C)Oc1nc2nc([C@]34CC[C@](C)(C3)OC4)cn2cc1C(=O)Nc1cccn(C(F)F)c1=O` (single isomer, unassigned) [Example 629], for which the concentration for half-maximal inhibition (IC50) amounted to 0.0003 µM. For `COc1cc2nc(C3CCOCC3)cn2cc1C(=O)Nc1cnn(C)c1C` [Example 194], the concentration for half-maximal inhibition (IC50) worked out at 0.624 µM. This IC50 lies about 2100-fold higher than the previous one. Same read-out and setting: then `CC12CC(c3cn4cc(C(=O)Nc5cccn(C(F)F)c5=O)c(OC5COC5)cc4n3)(CO1)C2` [Example 441, N-(1-(difluoromethyl)-2-oxo-1,2-dihydropyridin-3-yl)-2-(1-methyl-2-oxabicyclo[2.1.1]hexan-4-yl)-7-(oxetan-3-yloxy)imidazo[1,2-a]pyridine-6-carboxamide], with 0.0034 µM; and `CC[C@H](C)Oc1cc2nc(C34COC(C)(C3)C4)cn2cc1C(=O)Nc1cnn2cc(C)cnc12` [Example 559], with 0.0007 µM; and `COCc1nc2nc(C34COC(C)(C3)C4)cn2cc1C(=O)Nc1cnn2cc(C)cnc12` [Example 352, 7-(Methoxymethyl)-2-(1-methyl-2-oxabicyclo[2.1.1]hexan-4-yl)-N-(6-methylpyrazolo[1,5-a]pyrimidin-3-yl)imidazo[1,2-a]pyrimidine-6-carboxamide], with 6.53 µM. Regarding `CCOc1cc(C(=O)Nc2cccc(OC)n2)cn2cc(C3CCCOC3)nc12` (stereo not drawn) [Example 53, 8-Ethoxy-N-(6-methoxypyridin-2-yl)-2-(tetrahydro-2H-pyran-3-yl)imidazo[1,2-a]pyridine-6-carboxamide], the IC50 is 0.0352 µM. Against the preceding compound, the IC50 is about 190-fold lower. The compound `CC1(C)CC(Oc2cc3nc(C4CC4)cn3cc2C(=O)Nc2cccn(C(F)F)c2=O)C1` [Example 460, 2-Cyclopropyl-N-(1-(difluoromethyl)-2-oxo-1,2-dihydropyridin-3-yl)-7-(3,3-dimethylcyclobutoxy)imidazo[1,2-a]pyridine-6-carboxamide] displayed a half-maximal inhibitory concentration (IC50) of 0.0099 µM. Compared with the last compound, the IC50 is about 3.6-fold lower. The same measure, in the same setting: the result for `COc1ncccc1NC(=O)c1cn2cc(C34CCC(C)(C3)OC4)nc2c(OC(C)C)n1` (stereo not drawn) [Example 239] reads 0.0008 µM. Compound `COc1cccc(NC(=O)c2cn3cc(C4CC4)nc3cc2OC2CCC2)n1` [Example 463, 7-Cyclobutoxy-2-cyclopropyl-N-(6-methoxypyridin-2-yl)imidazo[1,2-a]pyridine-6-carboxamide] gave a half-maximal inhibitory concentration (IC50) of 0.0057 µM. As for `CCOc1nc(C(=O)Nc2cccnc2OC)cn2cc([C@@H]3CCOC3)nc12` (single isomer, unassigned) [Example 599], the half-inhibitory concentration (IC50) worked out at 0.0056 µM.

The compound `CC(C)Oc1cc2nc(C34CC(C#N)(C3)C4)cn2cc1C(=O)Nc1ccn(C)n1` [Example 404, 2-(3-Cyanobicyclo[1.1.1]pentan-1-yl)-7-isopropoxy-N-(1-methyl-1H-pyrazol-3-yl)imidazo[1,2-a]pyridine-6-carboxamide] came in with an IC50 of 0.0077 µM. `Cc1ccn2ncc(NC(=O)c3cn4cc(C56COC(C)(C5)C6)nc4cc3OC(C)C)c2n1` [Example 263, 7-Isopropoxy-2-(1-methyl-2-oxabicyclo[2.1.1]hexan-4-yl)-N-(5-methylpyrazolo[1,5-a]pyrimidin-3-yl)imidazo[1,2-a]pyridine-6-carboxamide] came in with an IC50 of 0.0002 µM.

Staying with this test, now noted: IRAK4 Biochemical Assay (1 mM ATP, 2 h) IC50 (μM), 1 mM ATP, 2 h, 100 pM IRAK4.
`COc1cc2nc(C3CCOCC3)cn2cc1C(=O)Nc1cc(F)cn(C)c1=O` [Example 212, N-(5-fluoro-1-methyl-2-oxo-1,2-dihydropyridin-3-yl)-7-methoxy-2-(tetrahydro-2H-pyran-4-yl)imidazo[1,2-a]pyridine-6-carboxamide trifluoroacetate] gave a concentration for half-maximal inhibition (IC50) of 0.016 µM. Consider `CC(C)Oc1cc2nc(C34COC(C)(C3)C4)cn2cc1C(=O)Nc1cc2ccccn2n1` [Example 298, 7-Isopropoxy-2-(1-methyl-2-oxabicyclo[2.1.1]hexan-4-yl)-N-(pyrazolo[1,5-a]pyridin-2-yl)imidazo[1,2-a]pyridine-6-carboxamide trifluoroacetate], for which half-maximal inhibition (IC50) required 0.063 µM. Regarding `COc1nc(C(=O)Nc2cccc(C(F)F)n2)cn2cc(C3CCOCC3)nc12` [Example 206, N-[6-(difluoromethyl)-2-pyridyl]-8-methoxy-2-tetrahydropyran-4-ylimidazo[1,2-a]pyrazine-6-carboxamide trifluoroacetate], the IC50 stood at 0.0128 µM. For `CC12CC(c3cn4cc(C(=O)Nc5cccn(C(F)F)c5=O)c(OCC5CC(F)(F)C5)cc4n3)(CO1)C2` [Example 448, 7-((3,3-Difluorocyclobutyl)methoxy)-N-(1-(difluoromethyl)-2-oxo-1,2-dihydropyridin-3-yl)-2-(1-methyl-2-oxabicyclo[2.1.1]hexan-4-yl)imidazo[1,2-a]pyridine-6-carboxamide], the half-inhibitory concentration (IC50) was determined as 0.0013 µM. In the case of `Cn1ccc(NC(=O)c2cn3cc(C45COC(C)(C4)C5)nc3cc2OC2CC(C(F)F)C2)n1` (stereo not drawn) [Example 451, 7-(3-(Difluoromethyl)cyclobutoxy)-N-(1-methyl-1H-pyrazol-3-yl)-2-(1-methyl-2-oxabicyclo[2.1.1]hexan-4-yl)imidazo[1,2-a]pyridine-6-carboxamide], the midpoint of inhibition, the IC50, lay at 0.0065 µM. This IC50 is about 5-fold higher than that of the compound before. `COc1cccc(NC(=O)c2cn3cc(C45CCC(C)(C4)OC5)nc3cc2OC)n1` (stereo not drawn) [Example 27] came in with a 50% inhibitory concentration (IC50) of 0.0198 µM. This IC50 is about 3-fold higher than that of the compound before.
